Molecular target: T1, human CaSR (Homo sapiens, UniProt P41180)
T1 sequence (P41180 20-1078): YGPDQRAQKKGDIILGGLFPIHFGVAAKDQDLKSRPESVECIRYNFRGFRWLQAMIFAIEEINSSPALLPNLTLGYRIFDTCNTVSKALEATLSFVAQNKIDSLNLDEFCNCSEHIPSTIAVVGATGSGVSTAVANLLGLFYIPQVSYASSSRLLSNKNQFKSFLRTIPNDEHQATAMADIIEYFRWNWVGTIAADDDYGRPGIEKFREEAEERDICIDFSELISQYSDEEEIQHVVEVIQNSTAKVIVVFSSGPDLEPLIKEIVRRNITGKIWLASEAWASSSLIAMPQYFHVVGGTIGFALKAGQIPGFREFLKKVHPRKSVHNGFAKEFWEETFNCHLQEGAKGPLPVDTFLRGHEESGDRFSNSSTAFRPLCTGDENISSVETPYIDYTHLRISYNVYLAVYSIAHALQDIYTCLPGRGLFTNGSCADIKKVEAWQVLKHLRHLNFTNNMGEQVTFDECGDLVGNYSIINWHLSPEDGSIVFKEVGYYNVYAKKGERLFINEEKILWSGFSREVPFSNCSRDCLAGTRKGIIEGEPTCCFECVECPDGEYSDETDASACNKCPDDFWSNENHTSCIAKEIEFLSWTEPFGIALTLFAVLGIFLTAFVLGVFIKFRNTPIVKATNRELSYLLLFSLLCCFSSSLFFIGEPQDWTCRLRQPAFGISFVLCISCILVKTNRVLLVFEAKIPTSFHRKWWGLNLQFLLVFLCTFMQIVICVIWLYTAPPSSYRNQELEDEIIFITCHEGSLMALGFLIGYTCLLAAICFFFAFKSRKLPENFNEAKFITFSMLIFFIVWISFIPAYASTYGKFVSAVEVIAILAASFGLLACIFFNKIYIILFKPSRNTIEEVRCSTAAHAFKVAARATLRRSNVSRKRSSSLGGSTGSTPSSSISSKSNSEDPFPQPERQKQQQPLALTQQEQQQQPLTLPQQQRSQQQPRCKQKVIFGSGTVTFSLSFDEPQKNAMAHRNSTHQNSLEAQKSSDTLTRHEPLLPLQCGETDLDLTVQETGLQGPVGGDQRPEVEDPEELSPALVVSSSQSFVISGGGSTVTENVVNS
Assay: Functional whole cell assay (modulation of human CaSR), IP1 accumulation in CHO-K1 cells
Assay type: cell-based
Details: CHO-K1 cells stably expressing human CaSR, final Ca2+ 1.9 mM, IP1 HTRF; concentration giving 50% of maximum agonistic response
Description: The assay investigates a compound's functional ability to act as a biological positive modulator on the human CaSR. Activation of the receptor expressed on CHO-K1 cells is detected through the G alpha q pathway, the activation of phospholipase C and the accumulation of intracellular inositol phosphate (IP) as described earlier [Sandrine Ferry, Bruno Chatel, Robert H. Dodd, Christine Lair, Danielle Gully, Jean-Pierre Maffrand, and Martial Ruat. Effects of Divalent Cations and of a Calcimimetic on Adrenocorticotropic Hormone Release in Pituitary Tumor Cells. Biochemical and biophysical research Communications 238, 866-873 (1997)]. The human CaSR is stably expressed on a CHO-K1 cell clone, stimulated with a basal level of calcium and challenged with the tested compound. The level of IP1 is determined using the IP-One Terbium htrf kit (Cisbio, France). CHO-K1 cells not transfected with the CaSR fail to elicit an IP1 response upon calcium and/or compound stimulation.
The ORF coding for the human CaSR (genebank: NM_000388) was acquired from Invitrogen Corp, USA and subsequently cloned into the mammalian expression vector pCDA3.1.
CHO-K1 cells were transfected using Lipofectamine according to manufacturer's protocol (400.000 cells/well were seeded in a 6-well plate and transfected after 24 hours using 2 μg DNA and 5 μl lipofectamine). After another 24 hours the cells were detached, seeded and subjected to 1 mg/ml of G-418. Following 7 days growth single clones were picked, the CaSR expression evaluated using the 5C10 antibody against CaSR, the clones with the highest expression were selected and tested for functional response. The preferred clone was cultured according to standard procedures described in ATCC (American Type Culture Collection) protocols for CHO-K1 with the addition of 500 μg/ml G-418.
On the assay day, cells were thawed, harvested and resuspended to 4*10^6 cells/ml in stimulation buffer (containing: Hepes 10 mM, MgCl2 0.5 mM, KCl 4.2 mM, NaCl 146 mM, glucose 5.5 mM, LiCl 50 mM, BSA 0.5% at pH 7.4). Ten μl cell solution was pipetted into wells of a white 384-well plate (Perkin Elmer Optiplate) containing 2 μl compound diluted in assay buffer (containing: Hepes 10 mM, MgCl2 0.5 mM, KCl 4.2 mM, NaCl 146 mM, glucose 5.5 mM, LiCl 50 mM, CaCl2 11.4 mM at pH 7.4), resulting in a final Ca^2+ concentration of 1.9 mM. After compound stimulation for 1 hour at 37° C. and 15 min at room temperature, 10 ul of IP-One assay detection reagent (prepared as described by the IP-One assay kit manufacturer) was added and the plate was incubated for another 1 hour at room temperature. Finally the plate was read using a Perkin Elmer EnVision, according to the protocol supplied by the IP-One assay kit manufacturer. The FRET ratio was calculated by dividing the 665 nm emission signal with that of the 615 nm.
The molar concentration of a compound that produces 50% of the maximum agonistic response (the […] value) is calculated according to the equation “General sigmoidal curve with Hill slope, a to d” (Equation 1). This model describes a sigmoidal curve with an adjustable baseline. The equation can be used to fit curves where response is either increasing or decreasing with respect to the independent variable, X.
y=(a−d)/(1+(x/c)̂b)+d Equation 1.

COc1cc([C@@H](C)N[C@H]2CC[C@@H](c3ccc(C(=O)NCCNC(=O)CO)cc3)C2)ccc1F [Compound 103, 4-[(1R,3S)-3-[[(1R)-1-(4-Fluoro-3-methoxy-phenyl)ethyl]amino]cyclopentyl]-N-[2-[(2-hydroxyacetyl)amino]ethyl]benzamide]
EC50: < 200 nM

COc1cc([C@@H](C)N[C@H]2CC[C@@H](c3ccc(C(=O)NCCNC(=O)CS(C)(=O)=O)cc3)C2)ccc1F [Compound 105, 4-[(1R,3S)-3-[[(1R)-1-(4-Fluoro-3-methoxy-phenyl)ethyl]amino]-cyclopentyl]-N-[2-[(2-methylsulfonylacetyl)amino]ethyl]benzamide]
EC50: < 200 nM

COc1cc([C@@H](C)N[C@H]2CC[C@@H](c3ccc(C(=O)NCCNC(=O)c4nc[nH]n4)cc3)C2)ccc1F [Compound 101, N-[2-[[4-[(1R,3S)-3-[[(1R)-1-(4-Fluoro-3-methoxy-phenyl)ethyl]-amino]cyclopentyl]benzoyl]amino]ethyl]-1H-1,2,4-triazole-3-carboxamide]
EC50: < 200 nM

COc1cc([C@@H](C)N[C@H]2CC[C@@H](c3ccc(C(=O)NCCNC(=O)C(N)=O)cc3)C2)ccc1F [Compound 104, N-[2-[[4-[(1R,3S)-3-[[(1R)-1-(4-Fluoro-3-methoxy-phenyl)ethyl]amino]cyclopentyl]benzoyl]amino]ethyl]oxamide]
EC50: < 200 nM

COc1cc([C@@H](C)N[C@H]2CC[C@@H](c3ccc(C(=O)NCCNC(=O)C(O)CO)cc3)C2)ccc1F (stereo partly drawn) [Compound 102, N-[2-(2,3-Dihydroxypropanoylamino)ethyl]-4-[(1R,3S)-3-[[(1R)-1-(4-fluoro-3-methoxy-phenyl)ethyl]amino]cyclopentyl]benzamide]
EC50: 200 to 1000 nM

Reference: patent publication US20130245084A1, “CALCIUM-SENSING RECEPTOR-ACTIVE COMPOUNDS” (LEO PHARMA A/S, priority 2010, published 2013)
